# Measurements: patent US8999956B2, “N-[(het)arylalkyl)] pyrazole(thio)carboxamides and their heterosubstituted analogues” (Bayer Intellectual Property GmbH, priority 2010, dated 2015)
# Read-outs that look alike come from different tables or passages of the source.
# How the values were obtained:
# Sphaerotheca fuliginea = assay: In vivo preventive test on Sphaerotheca fuliginea (cucumber); conditions: 500 ppm of active ingredient, evaluated 7 days after inoculation
# Method in brief: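 Young cucumber plants sprayed with compound (in DMF with alkylarylpolyglycolether emulsifier, diluted in water) at the stated application rate. Inoculated one day later with aqueous Sphaerotheca fuliginea spore suspension. Plants then held in greenhouse at approximately 23° C and approximately 70% relative humidity.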
# Alternaria solani = assay: In vivo preventive test on Alternaria solani (tomato); conditions: 500 ppm of active ingredient, evaluated 7 days after inoculation
# Method in brief: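 Young tomato plants sprayed preventively with compound in DMF/alkylarylpolyglycolether emulsion diluted in water to the stated rate. Inoculation with aqueous Alternaria solani spore suspension one day after treatment.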
# Pyrenophora teres = assay: In vivo preventive test on Pyrenophora teres (barley); conditions: 500 ppm of active ingredient, evaluated 7-9 days after inoculation
# Method in brief: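 Compound formulated in N,N-dimethylformamide with alkylaryl polyglycol ether emulsifier and diluted in water, then sprayed on young barley plants at the stated application rate. Plants inoculated one day later with aqueous Pyrenophora teres spore suspension, testing preventive protection.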
# Venturia inaequalis = assay: In vivo preventive test on Venturia inaequalis (apple scab); conditions: 100 ppm of active ingredient, evaluated 10 days after inoculation
# Method: (§1) Solvent: 24.5 parts by weight of acetone • 24.5 parts by weight of N,N-dimethylacetamide Emulsifier: 1 part by weight of alkylaryl polyglycol ether To produce a suitable preparation of active compound, 1 part by weight of active compound is mixed with the stated amounts of solvent and emulsifier, and the concentrate is diluted with water to the desired concentration. To test for preventive activity, young plants are sprayed with the preparation of active compound at the stated rate of application.
# Septoria tritici = assay: In vivo preventive test on Septoria tritici (wheat); conditions: 500 ppm of active ingredient, evaluated 21 days after inoculation
# Method: Solvent: 49 parts by weight of N,N-dimethylacetamide Emulsifier: 1 part by weight of alkylaryl polyglycol ether To produce a suitable preparation of active compound, 1 part by weight of active compound or active compound combination is mixed with the stated amounts of solvent and emulsifier, and the concentrate is diluted with water to the desired concentration. To test for preventive activity, young plants are sprayed with the preparation of active compound or active compound combination at the stated rate of application. After the spray coating has been dried, the plants are sprayed with a spore suspension of Septoria tritici.
# [1] = tested on: Blumeria graminis fsp. hordei; assay: In vivo preventive test on Blumeria graminis (barley); conditions: 500 ppm of active ingredient, evaluated 7 days after inoculation
# Method: Solvent: 49 parts by weight of N,N-dimethylacetamide Emulsifier: 1 part by weight of alkylaryl polyglycol ether To produce a suitable preparation of active compound, 1 part by weight of active compound or active compound combination is mixed with the stated amounts of solvent and emulsifier, and the concentrate is diluted with water to the desired concentration. To test for preventive activity, young plants are sprayed with the preparation of active compound or active compound combination at the stated rate of application. After the spray coating has been dried, the plants are dusted with spores of Blumeria graminis fsp. hordei.
# [2] = tested on: Fusarium nivale (var. majus); assay: In vivo preventive test on Fusarium nivale (wheat); conditions: 500 ppm of active ingredient, evaluated 5 days after inoculation
# Method: Solvent: 49 parts by weight of N,N-dimethylacetamide Emulsifier: 1 part by weight of alkylaryl polyglycol ether To produce a suitable preparation of active compound, 1 part by weight of active compound or active compound combination is mixed with the stated amounts of solvent and emulsifier, and the concentrate is diluted with water to the desired concentration. To test for preventive activity, young plants are sprayed with the preparation of active compound or active compound combination at the stated rate of application. After the spray coating has been dried, the plants are slightly injured by using a sandblast and afterwards they are sprayed with a conidia suspension of Fusarium nivale (var. majus).
# Leptosphaeria nodorum = assay: In vivo preventive test on Leptosphaeria nodorum (wheat); conditions: 500 ppm of active ingredient, evaluated 7-9 days after inoculation
# Method in brief: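 Compound formulated in N,N-dimethylacetamide with alkylaryl polyglycol ether emulsifier and diluted with water. Young wheat plants were sprayed at the stated application rate, then inoculated one day later with an aqueous spore suspension of L. nodorum.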
# Uromyces appendiculatus = assay: In vivo preventive test on Uromyces appendiculatus (beans); conditions: 100 ppm of active ingredient, evaluated 10 days after inoculation
# Method: as §1
# Puccinia triticina = assay: In vivo preventive test on Puccinia triticina (wheat); conditions: Table K, 500 ppm of active ingredient, evaluated 8 days after inoculation
# [3] = tested on: aflatoxines produced by Aspergillus parasiticus; assay: microbe, parasite or virus in culture; type: cell-based
# Aspergillus parasiticus = assay: microbe, parasite or virus in culture; type: cell-based
# [4] = log P by HPLC on reversed-phase column (EEC Directive 79/831 Annex V.A8); type: physicochemical
# Method: In table 1, the log P values were determined in accordance with EEC Directive 79/831 Annex V.A8 by HPLC (High Performance Liquid Chromatography) on a reversed-phase column (C18), using the method described below: Temperature: 40° C.; […]
# Botrytis cinerea = assay: In vivo preventive test on Botrytis cinerea (beans); conditions: Table L, 500 ppm of active ingredient, lesion size 2 days after inoculation
# Method: Solvent: 24.5 parts by weight of acetone • 24.5 parts by weight of N,N-dimethylacetamide
# Emulsifier: 1 part by weight of alkylaryl polyglycol ether
# To produce a suitable preparation of active compound, 1 part by weight of active compound is mixed with the stated amounts of solvent and emulsifier, and the concentrate is diluted with water to the desired concentration.
# To test for preventive activity, young plants are sprayed with the preparation of active compound. After the spray coating has dried on, 2 small pieces of agar covered with growth of Botrytis cinerea are placed on each leaf. The inoculated plants are placed in a darkened chamber at 20° C. and a relative atmospheric humidity of 100%.
# 2 days after the inoculation, the size of the lesions on the leaves is evaluated. 0% means an efficacy which corresponds to that of the untreated control, while an efficacy of 100% means that no disease is observed.
# Cochliobolus miyabeanus = assay: In vivo protective test on Cochliobolus miyabeanus (rice); conditions: Table M, 250 ppm of active ingredient, evaluated 4 days after inoculation
Structure (SMILES),Efficacy (Sphaerotheca fuliginea),Efficacy (Alternaria solani),Efficacy (Pyrenophora teres),Efficacy (Venturia inaequalis),Efficacy (Septoria tritici),Efficacy [1],Efficacy [2],Efficacy (Leptosphaeria nodorum),Efficacy (Uromyces appendiculatus),Efficacy (Puccinia triticina),% Inhibition of Aflatoxin at 50 μM [3],% Inhibition of fungal growth at 50 μM (Aspergillus parasiticus),logP [4],Efficacy (Botrytis cinerea),Efficacy (Cochliobolus miyabeanus),% Inhibition of fungal growth at 50 μM (Aspergillus parasiticus; 50 µM),"pest or weed control at 500 ppm (Puccinia triticina; Puccinia triticina, 192 h, read-out: Efficacy)",chromatographic logP ([4]; log P),chromatographic logP ([4]; logP)
CC(CCc1ccc(Cl)cc1Cl)N(C(=O)c1c(C(F)F)nn(C)c1F)C1CC1 (centres unmarked) [Example 184],100%,90%,100%,100%,100%,100%,100%,95%,100%,90%,100%,100%,4.56,,,,,,
CC(N(C(=O)c1c(C(F)F)nn(C)c1F)C1CC1)C(C)(C)Cc1ccccc1 (centres unmarked) [Example 9],95%,90%,100%,100%,100%,100%,100%,100%,94%,,,,4.06,100%,,,,,
"Cn1nc(C(F)F)c(C(=O)NC2CCCCC2CCC(C)(C)C)c1Cl (single isomer, unassigned) [Example 354]",,,,100%,,100%,100%,,100%,100%,,,4.73 isomer A,,,,,,
CC(CC(C)(C)C)C1CCCCC1NC(=O)c1c(C(F)F)nn(C)c1Cl (centres unmarked) [Example 359],100%,95%,100%,99%,100%,94%,100%,,100%,100%,100%,90%,5.28,,,,,,
CCCCC1CCCCC1NC(=O)c1c(C(F)F)nn(C)c1Cl (centres unmarked) [Example 331],100%,100%,95%,100%,100%,100%,100%,,100%,90%,99%,79%,4.10,,,,,,
"CC(CC(C)(C)C)C1CCCCC1NC(=O)c1c(C(F)F)nn(C)c1F (single isomer, unassigned) [Example 360]",100%,95%,95%,100%,90%,100%,86%,,,100%,100%,,4.85 isomer A,,94%,96%,,,
"Cn1nc(C(F)F)c(C(=O)NC2CCCC(CCC(C)(C)C)C2)c1F (centres unmarked) [Example 324, 3-(difluoromethyl)-N-[3-(3,3-dimethylbutyl)cyclohexyl]-5-fluoro-1-methyl-1H-pyrazole-4-carboxamide]",,90%,94%,,,,100%,,,,,,,,97%,,100%,4.8,4.8
"CC(C)CC(C)C1CCCCC1NC(=O)c1c(C(F)F)nn(C)c1Cl (single isomer, unassigned) [Example 335]",,,,100%,,70%,86%,,100%,100%,100%,,4.96 isomer B,,,84%,,,
"Cn1nc(C(F)F)c(C(=O)NC2CCCCC2CCC(C)(C)C)c1Cl (single isomer, unassigned) [Example 355]",,,,99%,,80%,100%,,100%,,,,4.95 isomer B,,,,,,
